Legend:
Assay type in all cases: cell-based, mouse
BMDMs [1] = assay: Mitochondrial bioenergetics, Seahorse OCR after IL-4
Procedure: BMDMs collected from lipin-1^mEnzyKO, lipin-1^mKO, and littermate control mice were seeded at a density of 150,000 cells per well on XF24 cell culture microplates and allowed to incubate for 4 h. Experiments were conducted in XF assay medium containing 25 mM glucose, 2 mM 1-glutamine, and 1 mM sodium pyruvate and analyzed using a Seahorse XFe 24 extracellular flux analyzer (Agilent Technologies). Where indicated, the following were injected: ATP-synthesis inhibitor oligomycin (Oligo; 1 μM), carbonyl cyanide 4-(trifluoromethoxy)phenylhydrazone (FCCP) (2 μM) to uncouple ATP synthesis, rotenone (100 nM) to block complex I, and antimycin A (1 μM) (Sigma-Aldrich) to block complex III. Oxygen consumption rate (OCR) was analyzed using Wave Desktop software (Agilent Technologies).
IL-4 stimulation polarizes macrophages toward a proresolving macrophage and elicits increased (3-oxidation and oxidative phosphorylation. In hepatocytes and skeletal muscle cells, lipin-1 promotes β-oxidation and oxidative phosphorylation. The inventors wanted to investigate if lipin-1 promoted oxidative phosphorylation in macrophages in response to IL-4. The inventors used BMDMs from lipin-1^mEnzyKO (EKO), lipin-1^mKO (KO), and littermate controls (wild type [WT]) to determine the contribution of the enzymatic activity and infer the contribution of the transcriptional coregulatory activity toward induction of oxidative phosphorylation. BMDMs from EKO, KO, and WT mice were stimulated with 40 ng/ml IL-4 for 4 h, and cellular bioenergetics were analyzed by Seahorse extracellular flux analyzer (Agilent Technologies). There were no differences in respiration between unstimulated WT and EKO macrophages (FIGS. 1 and 3). […] The inventors next tested if lipin-1 transcriptional coregulatory activity contributes to oxidative metabolism in macrophages. WT and lipin-1 KO macrophages were stimulated with IL-4 for 4 h, and cellular bioenergetics were analyzed. There was no difference in respiration between unstimulated WT and lipin-1 KO BMDMs (FIGS. 4 and 6).

BMDMs [2] = assay: IL-4 mediated wound-healing gene expression, qRT-PCR; settings: 20 ng/ml IL-4 for 4 h
Procedure: Bone marrow-derived macrophages were treated with IL-4 (R&D Biosystems, 404-ML-050) for 4 h and mRNA was extracted from the cultured cells using RNeasy Mini Kit (Qiagen—74106) as per manufacturer's instructions. cDNA template was generated using qScript cDNA SuperMix (Quantabio, 95048). qRT-PCR was performed in a Biorad iCycler with SsoAdvanced Universal SYBER Green SuperMix (Biorad, 172-5271). Primers (FIG. 42) were obtained from the Harvard primer bank database. Primer specificity was confirmed using primer BLAST and by verifying the presence of a single peak in melt curve analysis. Results were expressed as fold change relative to IL-4 treated WT cells by 2^−ΔΔCt method after normalizing with GAPDH.
Pro-inflammatory response in macrophages is influenced by lipin-1, but if lipin-1 contributes to wound healing responses by macrophages is unknown. The inventors have previously generated lipin-1^mEnzyKO mice that express a truncated lipin-1 protein lacking lipin-1 enzymatic activity but retain transcriptional co-regulatory function in myeloid cells. […] BMDMs from lipin-1^mEnzyKO, lipin-1^mKO, and appropriate littermate controls were stimulated with 20 ng/ml of IL-4 for 4 h. mRNA was isolated and analyzed for the expression of several canonical wound-healing associated genes: Arg1, Socs2, Ccl17, Mannr, Il10, and Pparg. […]

BMDMs [3] = assay: Phagocytosis assay with pHrodo green zymosan particles; settings: IL-4 stimulated (20 ng/ml, 24 h) lipin-1mKO BMDMs vs wild type BMDMs
Procedure: Bone marrow-derived macrophages (5×10^5 cells) were cultured on sterile coverslips in culture wells and treated with 20 ng/ml IL-4 for 24 h. Culture medium was then replaced with DMEM, containing pHrodo™ green Zymosan A BioParticles® (Thermo Fisher Scientific, P35365) such that each well receives 0.1 mg zymosan particles. BMDMs were allowed to phagocytose for 1 h under dark incubation and then the assay was stopped by cold PBS wash. Cells seeded on coverslips were then fixed using 4% formaldehyde. Cells on cover slips were washed three times and then stained with DAPI slowfade (Invitrogen, S36938). Immunofluorescent images were taken using Olympus BX51 and evaluated using Image J (1.50a) analysis software. Phagocytic efficiency for each image was calculated by dividing the total number of fluorescent beads by the total number of nuclei in the fluorescent image, thus giving average number of beads per cell. Experiment was performed 3 times with 4 random images per group (n=12).
Macrophages with a wound healing phenotype can have increased phagocytic capabilities. The inventors investigated the ability of BMDMs to phagocytize zymosan beads. The inventors mock treated or IL-4 treated BMDMs from lipin-1^mKO or litter mate controls for 24 h. […] The inventors then imaged using fluorescent microscopy and quantified average number of particles per cell.

IL-4: cytokine IL-4 (R&D Biosystems, 404-ML-050) used to stimulate macrophages; optional component of the claimed composition
OCR in response to IL-4 stimulation (BMDMs [1]; EKO (lipin-1mEnzyKO) BMDMs, 40 ng/ml IL-4 for 4 h): equivalent increase in OCR
OCR in response to IL-4 stimulation (BMDMs [1]; WT BMDMs, 40 ng/ml IL-4 for 4 h): increased OCR
OCR in response to IL-4 stimulation (BMDMs [1]; lipin-1 KO BMDMs, IL-4 for 4 h): failed to increase OCR
expression of IL-4 elicited genes (BMDMs [2]; lipin-1mEnzyKO BMDMs vs WT BMDMs): equivalent expression
IL-4 elicited gene expression (Arg1, Socs2, Ccl17, Mannr, Il10, Pparg) (BMDMs [2]; lipin-1mKO BMDMs vs wild type or lipin-1mEnzyKO): significantly lower
zymosan particles per cell (BMDMs [3]): fewer particles per cell
